Measurements from paper PMC9389804 (Journal of Hematology & Oncology, 2022).
“And” between values parts separate entries of the source, which are not always exact repeats. Identical values can stand only once.

Assay: safety assessments (adverse events, NCI CTCAE)
Conditions: for Treatment-related cardiovascular events: G 3/4
[1] = AE resulting in dose interruption, Accelerated phase n=38
[2] = AE resulting in dose interruption, Chronic phase n=127
[3] = AE resulting in dose interruption, Total n=165
[4] = AE resulting in dose reduction, Accelerated phase n=38
[5] = AE resulting in dose reduction, Chronic phase n=127
[6] = AE resulting in dose reduction, Total n=165
[7] = AE resulting in treatment discontinuation, Accelerated phase n=38
[8] = AE resulting in treatment discontinuation, Chronic phase n=127
[9] = AE resulting in treatment discontinuation, Total n=165
[10] = CVE possibly related to olverembatinib, all 165 patients
[11] = CVEs possibly related to olverembatinib

Method: Adverse events were assessed continuously and graded according to NCI CTCAE v5.0.18. Complete blood count with differential, serum chemistries, and physical examinations were performed before the study; weekly during Cycles 1 and 2; on alternate weeks in Cycles 3 and 4; and monthly thereafter.

Cc1ccc(C(=O)Nc2ccc(CN3CCN(C)CC3)c(C(F)(F)F)c2)cc1C#Cc1cnc2[nH]ncc2c1 [olverembatinib]
11 months: median time on treatment to cardiovascular events (CVEs) [11]
30 (18.2) n (%): Hematologic adverse events [6]
3 (1.8) n (%): Hypocalcemia [3] | Increased aspartate aminotransferase [3] | Pyrexia [3] | Anemia [6] | Neutropenia [6]
1 (0.6) n (%): Acute myocardial infarction [3] | Anal abscess [3] | Atrial septal defect [3] | Chest pain [3] | Cholecystitis acute [3] | Cholelithiasis [3] | Febrile neutropenia [3] | Glaucoma [3] | Hemorrhoids [3] | Hepatocellular injury [3] | Hyperglycaemia [3] | Hyperkalemia [3] | Hyperuricaemia [3] | Hypoesthesia [3] | Hyponatremia [3] | Increased amylase [3] | Increased pulmonary arterial pressure [3] | Increased γ-glutamyl transferase [3] | Influenza like illness [3] | Iridocyclitis [3] | Lacunar infarction [3] | Liver disorder [3] | Musculoskeletal pain [3] | Myocardial strain [3] | Pain [3] | Pain in extremity [3] | Pericardial effusion [3] | Peripheral swelling [3] | Proteinuria [3] | Pulmonary arterial hypertension [3] | Pulmonary tuberculosis [3] | Rash [3] | Refraction disorder [3] | Sinus bradycardia [3] | Skin mass [3] | Superior mesenteric artery syndrome [3] | Supraventricular extrasystoles [3] | Swelling [3] | Urinary sediment present [3] | Acute coronary syndrome [6] | Arteriosclerosis coronary artery [6] | Arthralgia [6] | Asthenia [6] | Atrial fibrillation [6] | Cerebral infarction [6] | Chest discomfort [6] | Dyspnea [6] | Electrocardiogram QT prolonged [6] | Glaucoma [6] | Hypertriglyceridaemia [6] | Hypokalemia [6] | Proteinuria [6] | Seronegative arthritis [6] | Subileus [6] | Acute myocardial infarction [9] | Breast cancer [9] | Febrile neutropenia [9] | Lacunar infarction [9] | Pericardial effusion [9] | Proteinuria [9] | Retinal-vein occlusion [9]
1.8%: Retinal-vein occlusion [10]
8 (4.8) n (%): Anemia [3]
48 (29.1) n (%): Nonhematologic [3]
5 (13.2) n (%): Anemia [1] | Leukopenia [1] | Nonhaematologic [4]
34 (26.8) n (%): Nonhematologic [2]
4 (2.4) n (%): Hypertriglyceridaemia [3] | Increased alanine aminotransferase [3] | Increased creatine phosphokinase [3]
42 (33.1) n (%): Thrombocytopenia [2]
44 (34.6) n (%): Hematologic [2]
26 (15.8) n (%): Thrombocytopenia [6]
7 (4.2) n (%): Hematologic [9]
3 (2.4) n (%): Anemia [2] | Hypertriglyceridaemia [2] | Hypocalcemia [2] | Increased alanine aminotransferase [2] | Increased creatine phosphokinase [2] | Thrombocytopenia [8]
66 (40.0) n (%): Hematologic [3]
20 (15.7) n (%): Hematologic adverse events [5]
9 (5.5) n (%): Leukopenia [3]
15 (11.8) n (%): Treatment-related cardiovascular events (Chronic phase n=127)
0 n (%): Acute myocardial infarction [1] | Atrial septal defect [1] | Chest pain [1] | Cholecystitis acute [1] | Cholelithiasis [1] | Febrile neutropenia [1] | Glaucoma [1] | Hemorrhoids [1] | Hyperbilirubinaemia [1] | Hyperglycaemia [1] | Hyperuricaemia [1] | Hypocalcemia [1] | Hypoesthesia [1] | Hyponatremia [1] | Increased amylase [1] | Increased pulmonary arterial pressure [1] | Increased γ-glutamyl transferase [1] | Influenza like illness [1] | Lacunar infarction [1] | Liver disorder [1] | Myocardial strain [1] | Pain [1] | Pain in extremity [1] | Peripheral swelling [1] | Pneumonia [1] | Proteinuria [1] | Pulmonary arterial hypertension [1] | Refraction disorder [1] | Sinus bradycardia [1] | Skin mass [1] | Superior mesenteric artery syndrome [1] | Swelling [1] | Urinary sediment present [1] | Anal abscess [2] | Hepatocellular injury [2] | Hyperkalemia [2] | Hypokalemia [2] | Iridocyclitis [2] | Musculoskeletal pain [2] | Pericardial effusion [2] | Pulmonary tuberculosis [2] | Rash [2] | Supraventricular extrasystoles [2] | Acute coronary syndrome [4] | Arteriosclerosis coronary artery [4] | Asthenia [4] | Cerebral infarction [4] | Chest discomfort [4] | Dyspnea [4] | Electrocardiogram QT prolonged [4] | Glaucoma [4] | Hypertriglyceridaemia [4] | Increased creatine phosphokinase [4] | Proteinuria [4] | Retinal-vein occlusion [4] | Subileus [4] | Arthralgia [5] | Atrial fibrillation [5] | Hypokalemia [5] | Leukopenia [5] | Seronegative arthritis [5] | Acute myocardial infarction [7] | Breast cancer [7] | Febrile neutropenia [7] | Lacunar infarction [7] | Proteinuria [7] | Retinal-vein occlusion [7] | Pericardial effusion [8]
3.0%: Atrial fibrillation [10] | Supraventricular extrasystoles [10]
6 (3.6) n (%): Nonhaematologic [9] | Thrombocytopenia [9]
7 (18.4) n (%): Thrombocytopenia [4]
4 (10.5) n (%): Neutropenia [1] | Adverse events resulting in treatment discontinuation (Accelerated phase n=38) | Treatment-related cardiovascular events (Accelerated phase n=38)
19 (11.5) n (%): Treatment-related cardiovascular events (Total n=165)
< 1%: angina pectoris, arrhythmia, atrial tachycardia, cardiomegaly, cerebral ischemia, and/or cerebral infarction [10]
28 (73.7%) n (%) and 28 (73.7) n (%): Adverse events resulting in dose interruption (Accelerated phase n=38)
2 (1.6) n (%): Hyperbilirubinaemia [2] | Increased aspartate aminotransferase [2] | Pneumonia [2] | Anemia [5] | Increased creatine phosphokinase [5] | Neutropenia [5] | Retinal-vein occlusion [5]
3 (7.9) n (%): Hematologic [7] | Thrombocytopenia [7]
19 (15) n (%): Thrombocytopenia [5]
14 (36.8) n (%): Nonhematologic [1]
5 (3.9) n (%): Nonhaematologic [8]
16 (12.6) n (%): Nonhaematologic [5]
11.5%: G3/4 cardiovascular events [11]
22 (57.9) n (%): Hematologic [1]
4 (3.1) n (%): Leukopenia [2] | Hematologic [8]
1.2%: Palpitations [10]
21 (12.7) n (%): Nonhaematologic [6]
2 (1.2) n (%): Atrial fibrillation [3] | Hyperbilirubinaemia [3] | Hypokalemia [3] | Pneumonia [3] | Sinus tachycardia [3] | Upper-respiratory-tract infection [3] | Hyperbilirubinaemia [6] | Hyperglycaemia [6] | Increased creatine phosphokinase [6] | Leukopenia [6] | Retinal-vein occlusion [6]
9 (7.1) n (%): Adverse events resulting in treatment discontinuation (Chronic phase n=127)
8.5%: Pericardial effusion [10]
10 (26.3) n (%): Hematologic adverse events [4]
1 (0.8) n (%): Acute myocardial infarction [2] | Atrial fibrillation [2] | Atrial septal defect [2] | Chest pain [2] | Cholecystitis acute [2] | Cholelithiasis [2] | Febrile neutropenia [2] | Glaucoma [2] | Hemorrhoids [2] | Hyperglycaemia [2] | Hyperuricaemia [2] | Hypoesthesia [2] | Hyponatremia [2] | Increased amylase [2] | Increased pulmonary arterial pressure [2] | Increased γ-glutamyl transferase [2] | Influenza like illness [2] | Lacunar infarction [2] | Liver disorder [2] | Myocardial strain [2] | Neutropenia [2] | Pain [2] | Pain in extremity [2] | Peripheral swelling [2] | Proteinuria [2] | Pulmonary arterial hypertension [2] | Pyrexia [2] | Refraction disorder [2] | Sinus bradycardia [2] | Sinus tachycardia [2] | Skin mass [2] | Superior mesenteric artery syndrome [2] | Swelling [2] | Upper-respiratory-tract infection [2] | Urinary sediment present [2] | Acute coronary syndrome [5] | Arteriosclerosis coronary artery [5] | Asthenia [5] | Cerebral infarction [5] | Chest discomfort [5] | Dyspnea [5] | Electrocardiogram QT prolonged [5] | Glaucoma [5] | Hyperbilirubinaemia [5] | Hyperglycaemia [5] | Hypertriglyceridaemia [5] | Proteinuria [5] | Subileus [5] | Acute myocardial infarction [8] | Breast cancer [8] | Febrile neutropenia [8] | Lacunar infarction [8] | Proteinuria [8] | Retinal-vein occlusion [8]
2 (5.3) n (%): Hypokalemia [1] | Pyrexia [1] | Leukopenia [4]
5 (3.0) n (%): Neutropenia [3]
1 (2.6) n (%): Anal abscess [1] | Atrial fibrillation [1] | Hepatocellular injury [1] | Hyperkalemia [1] | Hypertriglyceridaemia [1] | Increased alanine aminotransferase [1] | Increased aspartate aminotransferase [1] | Increased creatine phosphokinase [1] | Iridocyclitis [1] | Musculoskeletal pain [1] | Pulmonary tuberculosis [1] | Rash [1] | Sinus tachycardia [1] | Supraventricular extrasystoles [1] | Upper-respiratory-tract infection [1] | Anemia [4] | Arthralgia [4] | Atrial fibrillation [4] | Hyperbilirubinaemia [4] | Hyperglycaemia [4] | Hypokalemia [4] | Neutropenia [4] | Seronegative arthritis [4] | Nonhaematologic [7] | Pericardial effusion [7]
4.2%: Ventricular extrasystoles [10]
59 (35.8) n (%): Thrombocytopenia [3]
17 (44.7) n (%): Thrombocytopenia [1]
36 (28.3%) n (%) and 36 (28.3) n (%): Adverse events resulting in dose reduction (Chronic phase n=127)
14 (36.8%) n (%) and 14 (36.8) n (%): Adverse events resulting in dose reduction (Accelerated phase n=38)
58 (45.7%) n (%) and 58 (45.7) n (%): Adverse events resulting in dose interruption (Chronic phase n=127)
